Measurements: patent US6605602B1, “Method of treating BK virus nephropathy” (University of Pittsburgh-of the Commonwealth System of …, priority 2001, dated 2003)

Assays:
[1] = system: polyoma viral DNA replication; details: in vitro studies; cited from earlier work
BK virus (BKV) = experiment: Cidofovir treatment of renal transplant recipients with BKV nephropathy; BKV viral load by TaqMan QPCR; format: in vivo, human
Description: Nucleic acid was extracted from urine and plasma specimens (150 μl of urine or plasma per specimen) using the Qui Amp Viral RNA Minikit, commercially available from Qiagen, Inc. The extraction procedure was performed according to the manufacturer's instructions provided with the kit.
A BKV gene sequence from the VP-1 region was amplified by the real-time TaqMan QPCR assay using the following primers and probe. The forward BKVN primer had the sequence 5′-[…]-3′ (SEQ ID NO. 1) and a Tm of 59° C. The reverse BKVN primer had the sequence 5′-[…]-3′ (SEQ ID NO. 2) and a Tm of 59° C. The TaqMan probe had the sequence 5′-[…]-3′ (SEQ ID NO. 4) and a Tm of 68° C. The TaqMan probe was labeled at the 5′ end with a FAM dye and at the 3′ end with a TAMRA dye. […]
In order to generate a positive control, a BKV gene sequence from the VP-1 region encompassing the TaqMan primer amplicon was cloned in a vector using the pGEM-T PCR cloning system (Promega, Madison, Wis.). The above sequence was then quantitated using UV spectrophotometry in order to calculate the copy number for a master standard positive control. A 10× serial dilution of standard positive control, with copies ranging from 10^7 to 10^10 was made and used to generate a standard curve with each quantitative assay. […] The urinary viral load was expressed as BKV copies/μl of urine. The plasma viral load was expressed as BKV copies/μl. […]

[2] = contraindicated in patients with impaired renal function; cited from earlier work
JC virus = details: patients, infection caused by JC virus; cited from earlier work
[3] = Serum creatinine of cidofovir-treated BKVN renal transplant patients; format: in vivo, human; design: Current Creatinine: unit: mg/dl
Description: Four patients were treated with cidofovir at a dosage level of […], 2-3 times weekly. This is […] of the recommended dose of 5 mg/kg. In addition, cidofovir was administered without probenecid.
Subsequently, the serum creatinine progressively rose to 8 mg/dl. At this point, a combination of IV IgG, high dose steroids and a single dose of cidofovir (1 mg/kg IV without probenecid) was administered.

[4] = within 24 hours of administration; usual dosage 5 mg/kg; cited from earlier work

| SMILES | inhibition of polyoma viral DNA replication [1] | BKV in urine and blood samples by QPCR (BK virus (BKV); case report Patient #1, two months after single dose 1 mg/kg IV without probenecid, combined with IV IgG and high dose steroids) | clearance of BKV viruria, number of doses needed (BK virus (BKV); four BKVN patients, 0.25 to 1.0 mg/kg, 2-3 times weekly, without probenecid) | nephrotoxicity [2] | effect in progressive multifocal leukoencephalopathy (JC virus) | Current Creatinine ([3]; Patient 1, Post Urethral valve, 3 doses (20-20-40 mg)) | Current Creatinine ([3]; Patient 2, Diabetic Nephropathy, 3 doses (70-35-15 mg)) | Current Creatinine ([3]; Patient 3, Renal Dysplasia, 1 dose (20 mg)) | Current Creatinine ([3]; Patient 4, IgA Nephropathy, 4 doses (200-200-200-70 mg)) | serum creatinine after treatment ([3]; case report Patient #1, after resuming full immunosuppression, had risen to 8 mg/dl before treatment) [mg/dL] | dose excreted in the urine unchanged [4] |
| --- | --- | --- | --- | --- | --- | --- | --- | --- | --- | --- | --- |
| Nc1ccn(C[C@@H](CO)OCP(=O)(O)O)c(=O)n1 [cidofovir, (S)-1-(3-hydroxy-2-phosphonylmethoxypropyl) cytosine] | inhibit polyoma viral DNA replication | Neither sample was amplifiable for BKV | 2-4 doses | nephrotoxic | reportedly effective | 1.8 | 3.2 | 1.7 | 3 | 1.7 to 1.9 | 75-80% |
| Nc1ccn([C@@H]2O[C@H](CO)[C@@H](O)[C@@H]2O)c(=O)n1 [cytosine arabinoside] | inhibit polyoma viral DNA replication |  |  |  |  |  |  |  |  |  |  |
